Data as given in patent US12497365B2, “4-pyridinyl formamide compound or derivative thereof, preparation method therefor, herbicidal composition and use thereof” (Qingdao Kingagroot Chemical Compound Co., Ltd., priority 2019, dated 2025).

Experiments:
Assay in all cases: Weeding effect in post-emergence stage
Assay type in all cases: in vivo
Conditions in all cases: active ingredient 2000 g/ha, 3 weeks after application, fresh weight control rate
Abutilon theophrasti = system: Abutilon theophrasti
Summary of the method: (§1)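 Greenhouse post-emergence test: 2-3 leaf plants sprayed at 125-2000 g/ha, then fresh weight control rate scored at 3 weeks.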

[1] = system: Amaranthus retroflexus L.
Summary of the method: as §1

Chenopodium album = system: Chenopodium album
Summary of the method: as §1

Descurainia sophia = system: Descurainia sophia
Summary of the method: as §1

| Structure (SMILES) | Weeding effect, activity level (growth control rate), Abutilon theophrasti (Abutilon theophrasti) | Weeding effect, activity level (growth control rate), Amaranthus retroflexus L. [1] | Weeding effect, activity level (growth control rate), Chenopodium album (Chenopodium album) | Weeding effect, activity level (growth control rate), Descurainia sophia (Descurainia sophia) |
| --- | --- | --- | --- | --- |
| COc1cccc(F)c1-c1nccc(C(=O)Nc2nnnn2C)c1Cl [Compound 1-70] | 5 (Level 5: growth control rate is above 85%) | 5 (Level 5: growth control rate is above 85%) | 5 (Level 5: growth control rate is above 85%) | 5 (Level 5: growth control rate is above 85%) |
| COc1cc(F)cc(-c2nccc(C(=O)Nc3nnnn3C)c2Cl)c1 [Compound 1-71] | 5 (Level 5: growth control rate is above 85%) | 5 (Level 5: growth control rate is above 85%) | 5 (Level 5: growth control rate is above 85%) | 5 (Level 5: growth control rate is above 85%) |
| COc1cccc(-c2nccc(C(=O)Nc3nnnn3C)c2Cl)c1F [Compound 1-72] | 5 (Level 5: growth control rate is above 85%) | 5 (Level 5: growth control rate is above 85%) | 5 (Level 5: growth control rate is above 85%) | 5 (Level 5: growth control rate is above 85%) |
| Cn1nnnc1NC(=O)c1ccnc(-c2ccc(F)cc2C(F)(F)F)c1Cl [Compound 1-73] | 5 (Level 5: growth control rate is above 85%) | 5 (Level 5: growth control rate is above 85%) | 5 (Level 5: growth control rate is above 85%) | 5 (Level 5: growth control rate is above 85%) |
| Cn1nnnc1NC(=O)c1ccnc(-c2ccc(C(F)(F)F)cc2F)c1Cl [Compound 1-74] | 5 (Level 5: growth control rate is above 85%) | 5 (Level 5: growth control rate is above 85%) | 5 (Level 5: growth control rate is above 85%) | 5 (Level 5: growth control rate is above 85%) |
| Cn1nnnc1NC(=O)c1ccnc(-c2cc(C(F)(F)F)ccc2F)c1Cl [Compound 1-75] | 5 (Level 5: growth control rate is above 85%) | 5 (Level 5: growth control rate is above 85%) | 5 (Level 5: growth control rate is above 85%) | 5 (Level 5: growth control rate is above 85%) |
| Cn1nnnc1NC(=O)c1ccnc(-c2ccc(C(F)(F)F)cc2C(F)(F)F)c1Cl [Compound 1-76] | 5 (Level 5: growth control rate is above 85%) | 5 (Level 5: growth control rate is above 85%) | 5 (Level 5: growth control rate is above 85%) | 5 (Level 5: growth control rate is above 85%) |
| Cn1nnnc1NC(=O)c1ccnc(-c2cc(C(F)(F)F)cc(C(F)(F)F)c2)c1Cl [Compound 1-77] | 5 (Level 5: growth control rate is above 85%) | 5 (Level 5: growth control rate is above 85%) | 5 (Level 5: growth control rate is above 85%) | 5 (Level 5: growth control rate is above 85%) |
| Cn1nnnc1NC(=O)c1ccnc(-c2ccc(C#N)cc2F)c1Cl [Compound 1-78] | 5 (Level 5: growth control rate is above 85%) | 5 (Level 5: growth control rate is above 85%) | 5 (Level 5: growth control rate is above 85%) | 5 (Level 5: growth control rate is above 85%) |
| Cn1nnnc1NC(=O)c1ccnc(-c2ccc(C#N)c(F)c2)c1Cl [Compound 1-79] | 5 (Level 5: growth control rate is above 85%) | 5 (Level 5: growth control rate is above 85%) | 5 (Level 5: growth control rate is above 85%) | 5 (Level 5: growth control rate is above 85%) |
| Cn1nnnc1NC(=O)c1ccnc(-c2cccc(C#N)c2F)c1Cl [Compound 1-80] | 5 (Level 5: growth control rate is above 85%) | 5 (Level 5: growth control rate is above 85%) | 5 (Level 5: growth control rate is above 85%) | 5 (Level 5: growth control rate is above 85%) |
| Cn1nnnc1NC(=O)c1ccnc(-c2cc(F)cc(C#N)c2)c1Cl [Compound 1-81] | 5 (Level 5: growth control rate is above 85%) | 5 (Level 5: growth control rate is above 85%) | 5 (Level 5: growth control rate is above 85%) | 5 (Level 5: growth control rate is above 85%) |
| Cn1nnnc1NC(=O)c1ccnc(-c2cc(C#N)ccc2F)c1Cl [Compound 1-82] | 5 (Level 5: growth control rate is above 85%) | 5 (Level 5: growth control rate is above 85%) | 5 (Level 5: growth control rate is above 85%) | 5 (Level 5: growth control rate is above 85%) |
| Cn1nnnc1NC(=O)c1ccnc(-c2ccc(F)cc2C#N)c1Cl [Compound 1-83] | 5 (Level 5: growth control rate is above 85%) | 5 (Level 5: growth control rate is above 85%) | 5 (Level 5: growth control rate is above 85%) | 5 (Level 5: growth control rate is above 85%) |
| Cn1nnnc1NC(=O)c1ccnc(-c2ccc(F)c(C#N)c2)c1Cl [Compound 1-84] | 5 (Level 5: growth control rate is above 85%) | 5 (Level 5: growth control rate is above 85%) | 5 (Level 5: growth control rate is above 85%) | 5 (Level 5: growth control rate is above 85%) |
| Cn1nnnc1NC(=O)c1ccnc(-c2ccc(F)c(C(F)(F)F)c2)c1Cl [Compound 1-85] | 5 (Level 5: growth control rate is above 85%) | 5 (Level 5: growth control rate is above 85%) | 5 (Level 5: growth control rate is above 85%) | 5 (Level 5: growth control rate is above 85%) |
| Cn1nnnc1NC(=O)c1ccnc(-c2ccc(Cl)cc2Cl)c1Cl [Compound 1-86] | 5 (Level 5: growth control rate is above 85%) | 5 (Level 5: growth control rate is above 85%) | 5 (Level 5: growth control rate is above 85%) | 5 (Level 5: growth control rate is above 85%) |
| Cn1nnnc1NC(=O)c1ccnc(-c2cccc(Cl)c2Cl)c1Cl [Compound 1-87] | 5 (Level 5: growth control rate is above 85%) | 5 (Level 5: growth control rate is above 85%) | 5 (Level 5: growth control rate is above 85%) | 5 (Level 5: growth control rate is above 85%) |
| Cn1nnnc1NC(=O)c1ccnc(-c2ccc(Cl)c(Cl)c2)c1Cl [Compound 1-88] | 5 (Level 5: growth control rate is above 85%) | 5 (Level 5: growth control rate is above 85%) | 5 (Level 5: growth control rate is above 85%) | 5 (Level 5: growth control rate is above 85%) |
| Cn1nnnc1NC(=O)c1ccnc(-c2cc(Cl)cc(Cl)c2)c1Cl [Compound 1-89] | 5 (Level 5: growth control rate is above 85%) | 5 (Level 5: growth control rate is above 85%) | 5 (Level 5: growth control rate is above 85%) | 5 (Level 5: growth control rate is above 85%) |
| Cn1nnnc1NC(=O)c1ccnc(-c2cc(F)cc(Cl)c2)c1Cl [Compound 1-90] | 5 (Level 5: growth control rate is above 85%) | 5 (Level 5: growth control rate is above 85%) | 5 (Level 5: growth control rate is above 85%) | 5 (Level 5: growth control rate is above 85%) |
